From patent publication US20040076673A1, “Oral pharmaceutical composition containing a block copolymer” (priority 2000, published 2004)
In brackets after ≈: the same amount, converted by molar mass.

Assays:
Solubility Measurements = assay type: physicochemical
[1] = pH shift dissolution method (0.1N HCl, then shift to pH 6.5); assay type: physicochemical; settings: in vitro tests; with block copolymers versus without
Description: pH Shift Dissolution Method
The formulations were weighed into hard gelatin capsules (equivalent to 25 mg drug) and dissoluted in 500 ml 0.1N HCl for one hour at 37° C. (paddle speed 100 rpm). A 5 ml sample was taken at 55 minutes and the media replaced. After one hour 10 ml of a 2.5M KH2PO4/16.72% (w/v) NaOH solution was added to the HCl to shift the pH to 6.5. 5 ml samples were then removed with a plastic syringe at 5, 15, 30, 45 and 60 minutes and media replaced after every sampling time point. Each sample was centrifuged (14,000 rpm) at ambient temperature for 15 minutes and then analysed by HPLC using the following conditions: […]

- solubility (Solubility Measurements; pH 1.2, simulated gastric fluid): 250 µg/mL (≈ 508 µM)
- solubility (Solubility Measurements; pH 6.8, aqueous buffer): 2 µg/mL (≈ 4.07 µM)
- solubility (Solubility Measurements; water): < 5 µg/mL
- improvement of maximum supersaturated concentration by use of the polymers [1]: 4-10 times
SMILES: O=C(c1ccc(-c2ccncc2)cc1)N1CCN(S(=O)(=O)c2ccc3cc(Cl)ccc3c2)CC1 [Compound 1, 1-(6-chloronaphth-2-ylsulfonyl)-4-[4-(4-pyridyl)benzoyl] piperazine]
